Patent US6756370B1, “Piperidine alcohols” (Merck Patent GmbH, priority 1999, dated 2004)
Structures can show the parent of a compound that is named as a salt. Where two headings read alike, the source gives them in different places.

How the values were obtained:
5-HT2A receptors = biological target: T1, 5-HT2A receptors (Rattus norvegicus, UniProt P14842); test: 5-HT2A receptor binding test ([3H]ketanserin displacement)
T1 construct: Frontal rat cortex is homogenized in ice-cold buffer; from tissue; host or cells: rat frontal cortex homogenate (membrane pellet)
T1 sequence (P14842 whole entry): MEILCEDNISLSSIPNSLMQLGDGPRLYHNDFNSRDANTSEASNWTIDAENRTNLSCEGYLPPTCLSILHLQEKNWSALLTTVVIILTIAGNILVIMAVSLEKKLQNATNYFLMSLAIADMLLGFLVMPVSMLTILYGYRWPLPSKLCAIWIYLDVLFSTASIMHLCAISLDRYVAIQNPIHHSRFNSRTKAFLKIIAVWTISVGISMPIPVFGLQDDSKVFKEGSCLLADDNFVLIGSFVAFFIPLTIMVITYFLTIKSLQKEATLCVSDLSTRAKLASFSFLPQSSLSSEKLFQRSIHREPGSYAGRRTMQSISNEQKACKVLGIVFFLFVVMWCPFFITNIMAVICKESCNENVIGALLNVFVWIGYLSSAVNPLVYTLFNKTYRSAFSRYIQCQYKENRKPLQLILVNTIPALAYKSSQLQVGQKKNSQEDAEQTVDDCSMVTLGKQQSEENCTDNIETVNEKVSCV
Protocol: For the in-vitro detection of the affinity for 5-HT2A receptors, it is possible to use, for example, the following test (Example A1). The 5-HT2A receptors are exposed to both [^3H]ketanserin (a substance known for its affinity for the receptor) and the test compound. The decrease in the binding of [^3H]ketanserin to the receptor is a sign of the affinity of the test substance for the 5-HT2A receptor. Detection is carried out analogously to the description of J. E. Leysen et al., Molecular Pharmacology, 1982, 21: 301-314 or as also described, for example, in EP 0320983.
Preparation of a suspension of 5-HT2A receptors: Frontal rat cortex is homogenized in ice-cold buffer. The homogenate is centrifuged for 10 minutes at 4° C. and 50,000×[sic]. The pellet is resuspended in 2.5 ml of ice-cold tris buffer, made up with 10 ml of additional buffer and centrifuged as described [lacuna]. The pellet is then resuspended in buffer and diluted to give a homogenate which contains 60 mg of material/ml. 0.1 ml of the suspension, 100 μl of a 5 nM solution of [^3H]ketanserin, 100 μl of a solution of the test compound (concentration in the range from 10^−5 to 10^−10 mol per litre) are added to the incubation tubes and made up to 1 ml with buffer. The tubes are incubated for 15 minutes at 37° C. After termination of the incubation by immersing the tubes in an ice bath, the cooled suspension is filtered through a glass filter in vacuo. The filters are washed 3× with 5 ml of cold buffer and then transferred to scintillation tubes. The filters are analysed by means of liquid scintillation spectrometry in 8 ml of Triton X scintillator fluid.
The IC50 values are indicated for the binding tests.

[1] = system: DOI-induced head-twitching in mice; test: DOI-induced head-twitching in mice (DOI antagonism); format: in vivo; details: male mice, test compound orally, 30 minutes later 3 mg/kg of DOI intraperitoneally, observed for 15 minutes
Source text: Serotonin-2(5-HT2)agonists such as 1-(2,5-dimethoxy-4-iodophenyl)-2-aminopropane (DOI) induce sterotypic behaviour patterns such as, for example, head-twitching or ear-scratching in various animals such as, for example, mice or rats (N. A. Darmani et al., Pharmacol. Biochem. Behav. 1989, 36: 901-906; N. A. Darmani et al., Pharmacol. Biochem. Behav. 1990, 37: 95-99; N. A. Darmani et al., Pharmacol. Biochem. Behav. 1994, 48: 383-396; D. L. Willins and H. Y. Meltzer, J. Pharmacol. Exp. Ther., 1997, 282: 699-706).
DOI-induced head-twitching in mice is used in order to test compounds having 5-HT2A antagonistic properties. The test compound is orally administered to male mice. 30 minutes later, 3 mg/kg of DOI is [sic] are administered intraperitoneally. The animals are observed for 15 minutes and the number of head twitches is noted. Quantification of the in vivo antagonistic effect of the test compounds ensues by comparison with the number of head twitches from those investigations in which the animals were only DOI-treated.

[2] = frontal rat cortex homogenate, 15 minutes at 37° C.

Row | IC50 (5-HT2A receptors; [2]) [nM] | melting point [°C] | Compound | IC50 (5-HT2A receptors; read-out: IC50 values (concentrations in mol/l at which 50% of the radioactive ligands are displaced from the binding sites), frontal rat cortex homogenate, 15 minutes at 37° C.) [nM] | Inhibition [%], suppression of behaviour elicited (head-twitching in mice), DOI antagonism [1] [%]
1 | – | – | 1-{1-[2-(2,3-dimethoxy-phenyl)ethyl]piperidin-4-yl}-1-(4-fluorophenyl)ethanol, hydroiodide | 11 | –
2 | 4.2 | – | Cc1cc(CCN2CCC(C(C)(O)c3ccc(F)cc3)CC2)sc1Cl (racemic) | – | –
3 | 66 | – | Cc1nc(CCN2CCC(C(C)(O)c3ccc(F)cc3)CC2)cs1 (racemic) | – | –
4 | 1.4 | – | Cc1ccccc1CCN1CCC(C(C)(O)c2ccc(C(F)(F)F)cc2)CC1 (racemic) | – | –
5 | 2 | – | CC(O)(c1ccc(F)cc1)C1CCN(CCc2ccc(Cl)cc2Cl)CC1 (racemic) | – | –
6 | 0.83 | – | CC(O)(c1ccc(F)cc1)C1CCN(CCc2ccc(F)cc2F)CC1 (racemic) | – | –
7 | 2.2 | – | CC(O)(c1ccc(F)cc1)C1CCN(CCc2cc(Cl)sc2Cl)CC1 (racemic) | – | –
8 | 27 | – | CC(O)(c1ccc(F)cc1)C1CCN(CCc2ccc(C#N)cc2)CC1 (racemic) | – | –
9 | 32 | – | CC(O)(c1ccc(F)cc1)C1CCN(CCc2ccc(C(F)(F)F)cc2)CC1 (racemic) | – | –
10 | 3.9 | – | CC(O)(c1ccc(F)cc1)C1CCN(CCc2ccc(Br)s2)CC1 (racemic) | – | –
11 | 5.5 | – | CC(O)(c1ccc(F)cc1F)C1CCN(CCc2ccc(Cl)s2)CC1 (racemic) | – | –
12 | 8.6 | – | CC(O)(c1ccc(C(F)(F)F)cc1)C1CCN(CCc2ccc(Cl)s2)CC1 (racemic) | – | –
13 | 21 | – | COc1ccc(CCN2CCC(C(C)(O)c3ccc(F)cc3)CC2)s1 (racemic) | – | –
14 | 0.89 | – | Cc1ccc(CCN2CCC(C(C)(O)c3ccc(F)cc3)CC2)s1 (racemic) | – | –
15 | 2.2 | – | CC(O)(c1ccc(F)cc1)C1CCN(CCc2ccsc2)CC1 (racemic) | – | –
16 | 1.3 | 122 to 123 | CC(O)(c1ccc(F)cc1)C1CCN(CCc2ccc(F)cc2)CC1 (racemic) [1-{1-[2-(4-fluorophenyl)ethyl]piperidin-4-yl}-1-(4-fluorophenyl)ethanol] | – | –
17 | 0.75 | 159 to 160 | CC(O)(c1ccc(Cl)s1)C1CCN(CCc2ccc(F)cc2)CC1 (racemic) [1-{1-[2-(4-fluorophenyl)ethyl]piperidin-4-yl}-1-(5-chlorothiophen-2-yl)ethanol] | – | 26
18 | 0.83 | 177 to 178 | CC(O)(c1ccccc1)C1CCN(CCc2ccc(Cl)s2)CC1.I (racemic) [1-{1-[2-(5-chlorothiophen-2-yl)ethyl]piperidin-4-yl}-1-phenylethanol, hydroiodide] | – | –
19 | – | 222 to 223 | CC(O)(c1ccc(F)cc1)C1CCN(CCc2cccs2)CC1.Cl (racemic) [1-{1-[2-(thiophen-2-yl)ethyl]piperidin-4-yl}-1-(4-fluorophenyl)ethanol, hydrochloride] | – | –
20 | 0.68 | 205 to 207 | CC(O)(c1ccccc1)C1CCN(CCc2ccc(F)cc2)CC1.I (racemic) [R1=4-fluorophenyl, R2=phenyl, HI, rac, 1-{1-[2-(4-fluorophenyl)ethyl]piperidin-4-yl}-1-phenylethanol, hydroiodide] | – | –
21 | 220 | – | CC(O)(c1ccc(F)cc1)C1CCN(CCc2ccncc2)CC1 (racemic) [R1=4-pyridyl, R2=4-fluorophenyl, rac] | – | –
22 | 40 | – | CC(O)(c1ccc(F)cc1)C1CCN(CCc2ccc(F)cc2F)CC1 (single isomer, unassigned) [listing 1 of 2 here] | – | –
23 | 2.9 | – | CC(O)(c1ccc(F)cc1)C1CCN(CCc2ccc(F)cc2F)CC1 (single isomer, unassigned) [listing 2 of 2 here] | – | –
24 | 2200 | – | CC(O)(c1ccc(F)cc1F)C1CCN(CCc2ccc(F)cc2)CC1 (single isomer, unassigned) [listing 1 of 2 here] | – | –
25 | 0.72 | – | CC(O)(c1ccc(F)cc1F)C1CCN(CCc2ccc(F)cc2)CC1 (single isomer, unassigned) [listing 2 of 2 here] | – | –
26 | 250 | – | CC(O)(c1ccc(F)cc1)C1CCN(CCc2ccsc2)CC1 (single isomer, unassigned) [listing 1 of 2 here] | – | –
27 | 3.3 | – | CC(O)(c1ccc(F)cc1)C1CCN(CCc2ccsc2)CC1 (single isomer, unassigned) [listing 2 of 2 here] | – | –
28 | 0.35 | – | CC(O)(c1ccc(F)cc1)C1CCN(CCc2ccc(F)cc2)CC1 (single isomer, unassigned; (+)) [(+)-1-{1-[2-(4-fluorophenyl)ethyl]piperidin-4-yl}-1-(4-fluorophenyl)ethanol, hydrochloride] | – | –
29 | 57 | 185 to 186 | CC(O)(c1ccc(F)cc1)C1CCN(CCc2ccc(F)cc2)CC1.Cl (single isomer, unassigned; (-)) [(−)-1-{1-[2-(4-fluorophenyl)ethyl]piperidin-4-yl}-1-(4-fluorophenyl)ethanol, hydrochloride] | – | –
30 | – | – | COc1cccc(C(O)C2CCN(CCc3ccc(F)cc3)CC2)c1OC (stereo not drawn) [Comparison from EP 0531410, (+)-α-(2,3-dimethoxyphenyl)-1-[2-(4-fluorophenyl)-ethyl]-4-piperidinemethanol, reference compound] | – | 0

Row | Compound | IC50 (5-HT2A receptors; [2]) [nM] | melting point [°C] | IC50 (5-HT2A receptors; read-out: IC50 values (concentrations in mol/l at which 50% of the radioactive ligands are displaced from the binding sites), frontal rat cortex homogenate, 15 minutes at 37° C.) [nM] | Inhibition [%], suppression of behaviour elicited (head-twitching in mice), DOI antagonism [1] [%]
31 | CC(O)(c1ccc(Cl)cc1)C1CCN(CCc2ccc(F)cc2)CC1.Cl (racemic) [1-{1-[2-(4-fluorophenyl)ethyl]piperidin-4-yl}-1-(4-chlorophenyl)ethanol, hydrochloride] | 1.3 | 201 to 203 | – | 96
32 | CC(O)(c1cccc2c1OCCO2)C1CCN(CCc2ccc(F)cc2)CC1.Cl (racemic) [1-{1-[2-(4-fluorophenyl)ethyl]piperidin-4-yl}-1-(benzo[1,4]dioxan-5-yl)ethanol, hydrochloride] | 3.7 | 209 to 212 | – | 9
33 | CC(O)(c1ccc(Cl)cc1)C1CCN(CCc2ccc(Cl)s2)CC1.Cl (racemic) [1-{1-[2-(5-chlorothiophen-2-yl)ethyl]piperidin-4-yl}-1-(4-chlorophenyl)ethanol, hydrochloride] | 2.6 | 192 to 193 | – | 28
34 | CC(O)(c1ccc(F)cc1)C1CCN(CCc2ccc(Cl)s2)CC1 (racemic) [1-{1-[2-(5-chlorothiophen-2-yl)ethyl]piperidin-4-yl}-1-(4-fluorophenyl)ethanol] | 0.69 | – | – | –
35 | CC(O)(c1ccc(F)cc1)C1CCN(CCc2ccc(Cl)s2)CC1.Cl (single isomer, unassigned; (+)) [(+)-1-{1-[2-(5-chlorothiophen-2-yl)ethyl]piperidin-4-yl}-1-(4-fluorophenyl)ethanol, hydrochloride] | 1.1 | 210 to 211 | – | 21
